Our source for the EC50 values is US10759816B2, “Heterocyclic compounds as RSV inhibitors” (Enanta Pharmaceuticals, Inc., priority 2016, dated 2020).

SMILES strings stand for the structures.

The assay has as its system genotype A, "Long" strain RSV. Kind of assay: RSV-A in vitro cytoprotection assay in HEp-2 cells (ATPlite readout of cell viability). The conditions noted are these: human respiratory syncytial virus, HEp-2, HEp-2 cells, genotype A “Long” strain RSV, cytoprotection; read-out: Human RSV-A (“Long” strain) EC50. The class given is cell-based, Human respiratory syncytial virus. The gist of the method: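 Cytoprotection measured as ATP-based luminescence (ATPlite) after 4-day incubation of RSV Long-infected HEp-2 cells (8,000/well, 10% FBS DMEM) with 2-fold serial compound dilutions in duplicate. Identically treated virus-free plate gives cytotoxicity; EC50 calculated from viability.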
In general terms: ATP-based viability assays read luminescence as a measure of living cells.

In general, EC50 refers to the concentration needed to bring the measured effect to its halfway point. On to `Cc1cccc(F)c1NC(=O)c1cc2c(s1)-c1ccccc1N(C(=O)c1cccc(N3C[C@H]4COC[C@H]4C3)n1)CC2` [Example 376], for which the EC50 was over 800 nM. The value for `O=C(NC1CC1)c1cc2c(s1)-c1ccccc1N(C(=O)c1cccc(-c3cnn(C4CCOCC4)c3)n1)CC2` [Example 76] was 400 to 800 nM; that for `O=C(NC1CC1)c1cc2c(s1)-c1ccccc1N(C(=O)c1cccc(-c3cncn3C3CC3)n1)CC2` [Example 165] was under 400 nM. The value for `Cc1cccc(F)c1NC(=O)c1cc2c(s1)-c1ccccc1N(C(=O)c1cccc(-c3conc3C)n1)CC2` [Example 261] was under 400 nM.

For the compound `Cc1cccc(F)c1NC(=O)c1cc2c(s1)-c1ccccc1N(C(=O)c1cccc(N[C@@H]3CCOC3)n1)CC2` [Example 456], the EC50 was under 400 nM. The value for `O=C(NC1CC1)c1cc2c(s1)-c1ccccc1N(C(=O)c1cccc(N3CCOc4ccccc43)n1)CC2` [Example 319] was over 800 nM; that for `Cc1cccc(F)c1NC(=O)c1cc2c(s1)-c1ccccc1N(C(=O)c1ccc(NC(=O)NCCN3CCOCC3)cc1)CC2` [Example 129] was over 800 nM.

Consider `O=C(NC1CC1)c1cc2c(s1)-c1ccccc1N(C(=O)c1cccc(-c3ccc(N4CCOCC4)cc3)n1)CC2` [Example 66], for which the EC50 fell in the range of 400 to 800 nM. With `Cc1cccc(F)c1NC(=O)c1cc2c(s1)-c1ccccc1N(C(=O)c1cccc(-n3cnnc3C3CC3)n1)CC2` [Example 145] the figure was over 800 nM. The value for `CC(C)(Nc1cccc(C(=O)N2CCc3cc(C(=O)NC4CC4)sc3-c3ccccc32)n1)c1ccccn1` [Example 293] was over 800 nM. The value for `O=C(N[C@H]1CCOC1)c1cc2c(s1)-c1ccccc1N(C(=O)c1cccc(N3CCOc4ccccc4C3)n1)CC2` [Example 310] was under 400 nM; that for `Cc1cc(-c2ccc(C(=O)N3CCc4cc(C(=O)Nc5c(C)cccc5F)sc4-c4ccccc43)cc2)n(S(C)(=O)=O)n1` [Example 271] was over 800 nM. `O=C(NC1CC1)c1cc2c(s1)-c1ccccc1N(C(=O)c1cccc(-c3nncn3C3COC3)n1)CC2` [Example 128]: the EC50 is over 800 nM. `Cc1cnc(N2CC3(CCOCC3)C2)c(NC(=O)c2ccc(C(=O)N3CCc4cc(C(=O)Nc5c(C)cccc5F)sc4-c4ccccc43)cc2)c1` [Example 142]: the EC50 was under 400 nM. With `COC[C@@H](Nc1cccc(C(=O)N2CCc3cc(C(=O)Nc4c(C)cccc4F)sc3-c3ccccc32)n1)c1ccccc1` [Example 501] the figure was over 800 nM. With `Cc1cccc(F)c1NC(=O)c1cc2c(s1)-c1ccccc1N(C(=O)c1cccc(-n3cnc4ncccc43)n1)CC2` [Example 122] the figure was over 800 nM. The value for `O=C(c1cccc(N2CCCOCC2)n1)N1CCc2cc(S(=O)(=O)NC3CCOCC3)sc2-c2ccccc21` [Example 318] was over 800 nM. On to `COc1ccc(CN(C)c2cccc(C(=O)N3CCc4cc(C(=O)Nc5c(C)cccc5F)sc4-c4ccccc43)n2)cc1` [Example 344], for which the EC50 is under 400 nM. Consider `Cc1cccc(F)c1NC(=O)c1cc2c(s1)-c1ccccc1N(C(=O)c1cccc(N(C)Cc3ccc4ncccc4c3)n1)CC2` [Example 360], for which the concentration giving a half-maximal response (EC50) is under 400 nM.

Turning to `O=C(NC1CCC(F)(F)CC1)c1cc2c(s1)-c1ccccc1N(C(=O)c1cccc(-c3c[nH]nc3C3CC3)n1)CC2` [Example 175], the EC50 is under 400 nM. The value for `Cc1cccc(F)c1NC(=O)c1cc2c(s1)-c1ccccc1N(C(=O)c1cccc(N3CCS(=O)(=O)c4ccccc4C3)n1)CC2` [Example 419] was under 400 nM; that for `Cc1cccc(F)c1NC(=O)c1cc2c(s1)-c1ccccc1N(C(=O)c1cccc(-n3ccnc3C3CC3)n1)CC2` [Example 146] was under 400 nM; that for `COc1ccccc1[C@H](C)Nc1cccc(C(=O)N2CCc3cc(C(=O)NC4CC4)sc3-c3ccccc32)n1` [Example 292] was over 800 nM. With `O=C(NC1CC1)c1cc2c(s1)-c1ccccc1N(C(=O)c1cccc(NCc3ccccn3)n1)CC2` [Example 288] the figure was over 800 nM. As to `O=C(NC1CC1)c1cc2c(s1)-c1ccccc1N(C(=O)c1ccc(CC(=O)N3CCOCC3)cc1)CC2` [Example 8], the EC50 is over 800 nM. The value for `Cc1cccc(F)c1NC(=O)c1cc2c(s1)-c1ccccc1N(C(=O)c1cccc(N[C@H]3CCOC3)n1)CC2` [Example 457] was under 400 nM; that for `Cc1cccc(F)c1NC(=O)c1cc2c(s1)-c1ccccc1N(C(=O)c1cccc(N(C)CCS(C)(=O)=O)n1)CC2` [Example 333] was under 400 nM. With `Cc1cccc(F)c1NC(=O)c1cc2c(s1)-c1ccccc1N(C(=O)c1cccc(NC3CS(=O)(=O)c4ccccc43)n1)CC2` (stereo not drawn) [Example 476] the figure was under 400 nM; with `COC[C@H]1CCCN1c1cccc(C(=O)N2CCc3cc(C(=O)Nc4c(C)cccc4F)sc3-c3ccccc32)n1` [Example 506], under 400 nM. Consider `Cc1cccc(F)c1NC(=O)c1cc2c(s1)-c1ccccc1N(C(=O)c1cccc(N[C@H]3CCCNC3=O)n1)CC2` [Example 477], for which the EC50 was over 800 nM. With `COc1ccc(-c2cccc(C(=O)N3CCc4cnc(NC(=O)C5CC5)nc4-c4ccccc43)n2)cn1` [Example 110] the figure was over 800 nM.

Turning to `Cc1cccc(F)c1NC(=O)c1cc2c(s1)-c1ccccc1N(C(=O)c1cccc(-n3nnc4ncccc43)n1)CC2` [Example 123], the EC50 is over 800 nM. As for `O=C(Nc1cc2c(s1)-c1ccccc1N(C(=O)c1cccc(N3CCOc4ccccc4C3)n1)CC2)NS(=O)(=O)c1ccccc1` [Example 315], the EC50 is over 800 nM. The value for `CNC(=O)n1ncc(-c2cccc(C(=O)N3CCc4cc(C(=O)Nc5c(C)cccc5F)sc4-c4ccccc43)n2)c1C1CC1` [Example 218] was under 400 nM; that for `Cc1cccc(F)c1NC(=O)c1cc2c(s1)-c1ccccc1N(C(=O)c1cccc(N(C[C@H]3CCCO3)C3CCC3)n1)CC2` [Example 481] was under 400 nM; that for `O=C(NC1CC1)c1cc2c(s1)-c1ccccc1N(C(=O)c1cccc(N3CCC(F)(F)CC3)n1)CC2` [Example 23] was under 400 nM. With `COc1ccc(-c2cccc(C(=O)N3CCc4cc(C(=O)Nc5c(C)cccc5F)sc4-c4ccccc43)n2)cn1` [Example 264] the figure was over 800 nM. With `N#Cc1ccc(-c2cccc(C(=O)N3CCc4cc(C(=O)NC5CC5)sc4-c4ccccc43)c2)cc1` [Example 7] the figure was 400 to 800 nM.

As for `O=C(NC1CC1)c1cc2c(s1)-c1ccccc1N(C(=O)c1cc(N3CCOCC3)ccn1)CC2` [Example 48], the EC50 was over 800 nM. With `COc1cccc2c1ccn2-c1cccc(C(=O)N2CCc3cc(C(=O)Nc4c(C)cccc4F)sc3-c3ccccc32)n1` [Example 119] the figure was 400 to 800 nM; with `Cc1cccc(F)c1NC(=O)c1cc2c(s1)-c1ccccc1N(C(=O)c1cccc(-c3coc4cccnc34)n1)CC2` [Example 257], over 800 nM.

For the compound `Cc1cccc(F)c1NC(=O)c1cc2c(s1)-c1ccccc1N(C(=O)c1cccc(N3CCOCC(F)(F)C3)n1)CC2` [Example 400], the EC50 was under 400 nM.

Regarding `COC[C@H]1CCCN1c1cccc(C(=O)N2CCc3cc(C(=O)Nc4c(C)cccc4F)sc3-c3ccc(Br)cc32)n1` [Example 498], the EC50 was under 400 nM. The value for `Cc1cccc(F)c1NC(=O)c1cc2c(s1)-c1ccccc1N(C(=O)c1cccc(N3CCC[C@H]3C(C)C)n1)CC2` [Example 483] was under 400 nM; that for `Cc1cccc(F)c1NC(=O)c1cc2c(s1)-c1ccccc1N(C(=O)c1ccc(-c3c[nH]c4ncccc34)cc1)CC2` [Example 266] was over 800 nM. The value for `COC(C)(C)Cn1cnnc1-c1cccc(C(=O)N2CCc3cc(C(=O)NC4CC4)sc3-c3ccccc32)n1` [Example 125] was over 800 nM; that for `Cc1cccc(F)c1NC(=O)c1cc2c(s1)-c1ccccc1N(C(=O)c1cccc(N3CCCNCC3)n1)CC2` [Example 381] was over 800 nM; that for `Cc1cccc(F)c1NC(=O)c1cc2c(s1)-c1ccccc1N(C(=O)c1cccc(NC3CCOCC3)n1)CC2` [Example 453] was under 400 nM. Turning to `Cc1cccc(F)c1NC(=O)c1cc2c(s1)-c1ccccc1N(C(=O)c1cccc(NCC3(CS(C)(=O)=O)CC3)n1)CC2` [Example 467], the EC50 is 400 to 800 nM.

Consider `Cc1cccc(F)c1NC(=O)c1cc2c(s1)-c1ccccc1N(C(=O)c1cccc(N[C@@H](C)c3ccccn3)n1)CC2` [Example 340], for which the EC50 is over 800 nM. The value for `CN(C)C(=O)c1cc2c(s1)-c1ccccc1N(C(=O)c1cccc(N3CCCOCC3)n1)CC2` [Example 99] was over 800 nM.

With `Cn1ccc(-c2cccc(C(=O)N3CCc4cc(C(=O)Nc5ccccc5N)sc4-c4ccccc43)n2)n1` [Example 240], the EC50 was over 800 nM. The value for `Cc1cccc(F)c1NC(=O)c1cc2c(s1)-c1ccccc1N(C(=O)c1cccc(N3CCCOc4ccccc43)n1)CC2` [Example 404] was under 400 nM; that for `Cc1cccc(F)c1NC(=O)c1cc2c(s1)-c1ccccc1N(C(=O)c1cccc(-c3c[nH]c4c(C)cccc34)n1)CC2` [Example 253] was under 400 nM; that for `O=C(NC1CC1)c1cc2c(s1)-c1ccccc1N(C(=O)c1ccc3ccc(-c4ccncc4)cc3n1)CC2` [Example 186] was over 800 nM.

Consider `Cc1cccc(F)c1NC(=O)c1cc2c(s1)-c1ccccc1N(C(=O)c1cccc(-c3cnn(S(=O)(=O)C4CC4)c3C3CC3)n1)CC2` [Example 222], for which the EC50 fell in the range of 400 to 800 nM.

Consider `Cc1cccc(F)c1NC(=O)c1cc2c(s1)-c1ccccc1N(C(=O)c1cccc(-c3cncn3-c3ccccc3)n1)CC2` [Example 203], for which the EC50 is over 800 nM. With `COC[C@H]1CCN1c1cccc(C(=O)N2CCc3cc(C(=O)Nc4c(C)cccc4F)sc3-c3ccccc32)n1` [Example 507] the figure was under 400 nM; with `Cc1cccc(F)c1NC(=O)c1cc2c(s1)-c1ccccc1N(C(=O)c1cccc(NCc3cccc(C(F)(F)F)n3)n1)CC2` [Example 357], over 800 nM.

As to `Cc1cccc(F)c1NC(=O)c1cc2c(s1)-c1ccccc1N(C(=O)c1cccc(-c3ccn(C)n3)n1)CC2` [Example 235], the EC50 was over 800 nM.
